This assay has as its target phosphomevalonate kinase (Streptococcus pneumoniae D39). In words: phosphomevalonate kinase inhibition IC50 – biochemical, mevalonate pathway, coupling enzyme counter-screen, dose response (AID 549). The note with it: PMK enzyme, PK/LDH coupled NADH absorbance 340 nm.

The source made the active and inactive calls.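 The calls were made as follows: active = clearly stronger inhibition of phosphomevalonate kinase than of the coupling enzymes alone in a parallel counterscreen; inactive = the rest.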

The text below walks through data of PubChem BioAssay AID549 (SRMLSC, 2006).

For `CCOc1cc(C(=O)NCc2nnc(SCC(=O)OC)n2C)cc(OCC)c1OCC`, the outcome was inactive.

For `c1cncc(C(c2nnnn2C2CCCC2)N2CCCC2)c1` (configuration not stated), the result was inactive. For `CCCC(=O)Nc1cccc(NC(=O)CN2CCN(c3ccccc3OC)CC2)c1` the value was “inactive”; for `Cc1occc1C(=O)Nc1nnc(C(F)(F)F)s1`, “inactive”; for `CCOC(=O)c1cnc(SCC(=O)N2CCN(C(=O)c3ccco3)CC2)nc1N`, “inactive”.

As to `O=C(COC(=O)c1ccco1)NC1CCCCC1`, the outcome was inactive.

For the compound `Cc1sc2ncnc(NCC(c3ccco3)N(C)C)c2c1C` (configuration not stated), the result was inactive. For `O=C(NC1CCCCC1)C1CC(=O)N(c2ccc(Cl)cc2)C1` (configuration not stated) the value was “inactive”. For `Cc1cc(C)n2nc(SCC(=O)NCc3ccco3)nc2n1` the value was “inactive”; for `Cc1cccc(OCCCc2c(C)n[nH]c2C)c1`, “inactive”. For `COCCCNC(=O)C1C2C=CC3(CN(Cc4ccc(C)cc4)C(=O)C13)O2` (configuration not stated) the value was “inactive”. For `Cc1cccc2cc(CN(CCN3CCCC3)C(=O)NC3CCCCC3)c(=O)[nH]c12`, the outcome was inactive. For the compound `CCn1c(COc2ccccc2C)nnc1SCC(=O)N1CCCCC1`, the outcome was inactive.

For `Cc1nnc(SCc2ccccc2)n1N`, the outcome was inactive.

Take `Cc1cc(=O)n2[nH]c(-c3ccccc3Cl)cc2n1`: the outcome was inactive. As to `COc1ccc(N2CCN(CCNS(=O)(=O)c3cccc4nsnc34)CC2)cc1`, the outcome was inactive. To `O=C(CSCc1cccc(F)c1)N1CCN(c2ccccc2)CC1` belongs “inactive”. To `COc1ccccc1CN(Cc1cc2cc(C)cc(C)c2[nH]c1=O)Cc1nnnn1CC1CCCO1` (configuration not stated) belongs “inactive”; to `Cc1ccnc(N2CCC(C(=O)Nc3ccc(Oc4ccccc4)cc3)CC2)n1`, “inactive”. For `O=C(CNC(=O)c1cccs1)NCCN1CCN(c2ccccc2F)CC1` the value was “inactive”; for `O=c1cc(O)c2c(=O)[nH]c(=O)n(-c3ccccc3)c2[nH]1`, “inactive”; for `COc1ccc(-c2cc3nc(C)c(CCC(=O)N4CCCCC4)c(C)n3n2)c(OC)c1`, “inactive”.

For the compound `CN1CCc2c(sc3c2c(=O)n(-c2ccccc2)c2nnc(SCc4ccc(F)cc4)n32)C1`, the result was inactive. To `CN(C(=O)C1CCOC1)c1nnc(C2CCOC2)s1` (configuration not stated) belongs “inactive”; to `CS(=O)(=O)N1CCCC(C(=O)NCCc2ccc(Cl)cc2)C1` (configuration not stated), “inactive”. For `CCN1CCN(C(c2ccc(F)cc2)c2nnnn2Cc2cccs2)CC1` (configuration not stated) the value was “inactive”; for `CCOC(=O)C(CCc1nnc(N)s1)C(=O)OCC`, “inactive”. With `Cn1c(SCC(=O)NCc2ccco2)nc2ccccc2c1=O`, the result was inactive. To `CC(=O)c1ccc(Oc2ncnc3sccc23)c(CN2CCOCC2)c1` belongs “inactive”; to `COCCNC(=O)C(c1ccc(C)o1)N(Cc1ccc(OC)cc1)C(=O)Cn1nnc2ccccc21` (configuration not stated), “inactive”.

On to `CC1(C)CC(=O)c2cc(OCC(=O)N3CCN(c4ccccc4F)CC3)ccc2O1`, for which the outcome was inactive. For `Cc1occc1-c1nnc(SCC(=O)N2CCOCC2)n1Cc1ccco1` the value was “inactive”; for `CC(C)COC(=O)NCC12C=CC(O1)C1C(=O)N(c3ccc(Cl)cc3)C(=O)C12` (configuration not stated), “inactive”. For `COc1ccc(Cn2nnnc2C(c2ccccn2)N2CCN(c3cc(Cl)ccc3C)CC2)cc1` (configuration not stated), the result was inactive.

For the compound `COc1cc(OC)nc(NC(=O)NS(=O)(=O)c2ccc(OC(F)(F)F)cc2)n1`, the result was inactive. As for `Cc1ccc(Cl)cc1N1CCN(Cc2nnnn2C2CCCCC2)CC1`, the outcome was inactive. For `Cc1c2cnn(CC(=O)N3CCC4(CC3)OCCO4)c(=O)c2c(C)n1Cc1ccc(F)cc1` the value was “inactive”.
